The target of this assay is T1, human LPA1 (Homo sapiens, UniProt Q92633).
T1 construct: expressed in transfected cells; host or cells: Chinese hamster ovary (CHO) cells
T1 sequence (Q92633 whole entry): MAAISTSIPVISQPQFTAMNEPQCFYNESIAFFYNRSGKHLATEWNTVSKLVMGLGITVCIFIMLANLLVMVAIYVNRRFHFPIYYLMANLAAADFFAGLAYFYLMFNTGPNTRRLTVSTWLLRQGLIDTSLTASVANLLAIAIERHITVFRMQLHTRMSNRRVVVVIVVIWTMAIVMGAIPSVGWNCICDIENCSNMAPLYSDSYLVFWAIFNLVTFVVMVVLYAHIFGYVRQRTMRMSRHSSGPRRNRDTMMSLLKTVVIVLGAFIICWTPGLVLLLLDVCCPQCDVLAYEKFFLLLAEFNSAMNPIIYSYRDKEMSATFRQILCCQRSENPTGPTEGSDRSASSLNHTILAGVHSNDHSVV
Nature of the assay: LPA1 functional antagonist assay (calcium flux). It counts as cell-based. Particulars: CHO cells overexpressing human LPA1; inhibition of calcium flux induced by 10 nM LPA; read-out: hLPA1 IC50. How it is done:
The effectiveness of compounds of the present invention as LPA1 inhibitors can be determined in an LPA1 functional antagonist assay as follows:
Chinese hamster ovary cells overexpressing human LPA1 were plated overnight (15,000 cells/well) in poly-D-lysine coated 384-well microplates (Greiner bio-one, Cat #781946) in DMEM/F12 medium (Gibco, Cat #11039). Following overnight culture, cells were loaded with calcium indicator dye (AAT Bioquest Inc, Cat #34601) for 30 minutes at 37° C. The cells were then equilibrated to room temperature for 30 minutes before the assay. Test compounds solubilized in DMSO were transferred to 384 well non-binding surface plates (Corning, Cat #3575) using the Labcyte Echo acoustic dispense and diluted with assay buffer [1×HBSS with calcium/magnesium (Gibco Cat #14025-092), 20 mM HEPES (Gibco Cat #15630-080) and 0.1% fatty acid free BSA (Sigma Cat #A9205)] to a final concentration of 0.5% DMSO. Diluted compounds were added to the cells by FDSS6000 (Hamamatsu) at final concentrations ranging from 0.08 nM to 5 μM. and were then incubated for 20 min at room temperature at which time LPA (Avanti Polar Lipids Cat #857130C) was added at final concentrations of 10 nM to stimulate the cells. The compound IC50 value was defined as the concentration of test compound which inhibited 50% of the calcium flux induced by LPA alone. IC50 values were determined by fitting data to a 4-parameter logistic equation (GraphPad Prism, San Diego Calif.).
Usually IC50 stands for the concentration at which inhibition is half-maximal. For the compound `CCCN(C)c1nc(NCc2c(-c3ccc(O[C@H]4CCC[C@H](C(=O)O)C4)c(C)n3)nnn2C)ncc1F` [Example 44], the 50% inhibitory concentration (IC50) is 44 nM. Regarding `Cc1nc(-c2nnn(C)c2CNc2ncc(F)c(NC3CC3)n2)ccc1O[C@H]1CCC[C@H](C(=O)O)C1` [Example 45], the IC50 was found to be 109 nM. Consider `CCCN(C)c1ccnc(NCc2c(-c3ccc(O[C@H]4CCC[C@H](C(=O)O)C4)c(C)n3)nnn2C)n1` [Example 46], for which the IC50 was determined as 304 nM. In the case of `Cc1nc(-c2nnn(C)c2CNc2ncc(F)c(NCC3CC3)n2)ccc1O[C@H]1CCC[C@H](C(=O)O)C1` [Example 47], the 50% inhibitory concentration (IC50) came out at 69 nM.

As for `Cc1nc(-c2nnn(C)c2CNc2ncnc(NCCC3CC3)n2)ccc1O[C@H]1CCC[C@H](C(=O)O)C1` [Example 48], the IC50 turned out to be 220 nM.

With `CCCCNc1nc(NCc2c(-c3ccc(O[C@H]4CCC[C@H](C(=O)O)C4)c(C)n3)nnn2C)ncc1F` [Example 49], the IC50 came to 69 nM. To `Cc1nc(-c2nnn(C)c2CNc2nccc(NCCC3CC3)n2)ccc1O[C@H]1CCC[C@H](C(=O)O)C1` [Example 50] belongs 243 nM; to `CCCNc1ccnc(NCc2c(-c3ccc(O[C@H]4CCC[C@H](C(=O)O)C4)c(C)n3)nnn2C)n1` [Example 51], 233 nM. To `Cc1nc(-c2nnn(C)c2CNc2ncc(F)c(NCCC(C)C)n2)ccc1O[C@H]1CCC[C@H](C(=O)O)C1` [Example 52] belongs 63 nM; to `Cc1nc(-c2nnn(C)c2CNc2ncc(F)c(NC3CCC3)n2)ccc1O[C@H]1CCC[C@H](C(=O)O)C1` [Example 53], 58 nM; to `Cc1nc(-c2nnn(C)c2CNc2ncc(F)c(Nc3ccccc3)n2)ccc1O[C@H]1CCC[C@H](C(=O)O)C1` [Example 54], 134 nM.

Consider `Cc1nc(-c2nnn(C)c2CNc2ccnc(OCC(C)(C)F)n2)ccc1O[C@H]1CCC[C@H](C(=O)O)C1` [Example 55], for which the IC50 is 189 nM.

As for `Cc1nc(-c2nnn(C)c2CNc2nccc(OCC(C)(C)F)n2)ccc1O[C@H]1CCC[C@H](C(=O)O)C1` [Example 56], the IC50 came out at 52 nM. For the compound `Cc1nc(-c2nnn(C)c2CNc2ncc(F)c(NCCC3CC3)n2)ccc1O[C@H]1CCC[C@H](C(=O)O)C1` [Example 57], the 50% inhibitory concentration (IC50) is 21 nM. Turning to `CCNc1nc(NCc2c(-c3ccc(O[C@H]4CCC[C@H](C(=O)O)C4)c(C)n3)nnn2C)ncc1F` [Example 58], the IC50 came out at 82 nM. To `Cc1nc(-c2nnn(C)c2CNc2ncc(F)c(NC(C)C)n2)ccc1O[C@H]1CCC[C@H](C(=O)O)C1` [Example 59] belongs 59 nM. To `Cc1nc(-c2nnn(C)c2CNc2ncc(F)c(NCC(C)C)n2)ccc1O[C@H]1CCC[C@H](C(=O)O)C1` [Example 60] belongs 34 nM; to `Cc1nc(-c2nnn(C)c2CNc2ccnc(OCC(C)(C)C)n2)ccc1O[C@H]1CCC[C@H](C(=O)O)C1` [Example 61], 233 nM; to `Cc1nc(-c2nnn(C)c2CNc2nccc(NCCc3ccc(F)cc3)n2)ccc1O[C@H]1CCC[C@H](C(=O)O)C1` [Example 62], 63 nM. The figure for `Cc1nc(-c2nnn(C)c2CNc2nccc(NCCc3ccccc3)n2)ccc1O[C@H]1CCC[C@H](C(=O)O)C1` [Example 63] is 86 nM; for `CCCNc1nc(NCc2c(-c3ccc(O[C@H]4CCC[C@H](C(=O)O)C4)c(C)n3)nnn2C)ncc1F` [Example 64] it is 46 nM; for `Cc1nc(-c2nnn(C)c2CNc2nccc(OCC(C)(C)C)n2)ccc1O[C@H]1CCC[C@H](C(=O)O)C1` [Example 65] it is 36 nM. Consider `Cc1nc(-c2nnn(C)c2CNc2nccc(C3CCCC3)n2)ccc1O[C@H]1CCC[C@H](C(=O)O)C1` [Example 66], for which the concentration for half-maximal inhibition (IC50) was 12 nM. For `[2H]C([2H])([2H])C([2H])(Oc1ccnc(NCc2c(-c3ccc(O[C@H]4CCC[C@H](C(=O)O)C4)c(C)n3)nnn2C)n1)C([2H])([2H])[2H]` [Example 67], the half-maximal inhibitory concentration (IC50) stood at 41 nM. `CCOc1ccnc(NCc2c(-c3ccc(O[C@H]4CCC[C@H](C(=O)O)C4)c(C)n3)nnn2C)c1` [Example 68]: the concentration for half-maximal inhibition (IC50) was 132 nM. The figure for `Cc1nc(-c2nnn(C)c2CNc2nccc(OCC(C)F)n2)ccc1O[C@H]1CCC[C@H](C(=O)O)C1` (some centres unmarked) [Example 69] is 54 nM; for `Cc1nc(-c2nnn(C)c2CNc2ncnc(N3CCCC3)n2)ccc1O[C@H]1CCC[C@H](C(=O)O)C1` [Example 70] it is 319 nM.

Take `[2H]C([2H])([2H])C([2H])([2H])Oc1ccnc(NCc2c(-c3ccc(O[C@H]4CCC[C@H](C(=O)O)C4)c(C)n3)nnn2C)n1` [Example 71]: the concentration for half-maximal inhibition (IC50) worked out at 13 nM. Regarding `Cc1nc(-c2nnn(C)c2CNc2cc(OC(F)(F)F)ccn2)ccc1O[C@H]1CCC[C@H](C(=O)O)C1` [Example 72], the IC50 came out at 57 nM.

Take `Cc1nc(-c2nnn(C)c2CNc2ccnc(OCC(F)F)n2)ccc1O[C@H]1CCC[C@H](C(=O)O)C1` [Example 73]: the IC50 was found to be 133 nM.

Turning to `Cc1nc(-c2nnn(C)c2CNc2nccc(OCC3(C)COC3)n2)ccc1O[C@H]1CCC[C@H](C(=O)O)C1` [Example 74], the IC50 came out at 130 nM. To `Cc1nc(-c2nnn(C)c2CNc2cc(OC(F)(F)F)ccn2)ccc1O[C@@H]1CCC[C@@H](C(=O)O)C1` [Example 75] belongs 413 nM; to `Cc1nc(-c2nnn(C)c2CNc2ncc(F)c(NCCc3ccc(Cl)cc3)n2)ccc1O[C@H]1CCC[C@H](C(=O)O)C1` [Example 76], 44 nM; to `Cc1nc(-c2nnn(C)c2CNc2ccnc(OCC(C)(F)F)n2)ccc1O[C@H]1CCC[C@H](C(=O)O)C1` [Example 77], 65 nM. As to `Cc1nc(-c2nnn(C)c2CNc2nccc(OCC(C)(F)F)n2)ccc1O[C@H]1CCC[C@H](C(=O)O)C1` [Example 78], the 50% inhibitory concentration (IC50) stood at 34 nM. To `Cc1nc(-c2nnn(C)c2CNc2nccc(OCC(F)F)n2)ccc1O[C@H]1CCC[C@H](C(=O)O)C1` [Example 79] belongs 80 nM; to `Cc1nc(-c2nnn(C)c2CNc2ncnc(Oc3ccccc3)n2)ccc1O[C@H]1CCC[C@H](C(=O)O)C1` [Example 80], 135 nM; to `Cc1nc(-c2nnn(C)c2CNc2nccc(-c3cnccn3)n2)ccc1O[C@H]1CCC[C@H](C(=O)O)C1` [Example 81], 92 nM. The figure for `COCCOc1ccnc(NCc2c(-c3ccc(O[C@H]4CCC[C@H](C(=O)O)C4)c(C)n3)nnn2C)n1` [Example 82] is 122 nM; for `Cc1nc(-c2nnn(C)c2CNc2nccc(OC3CCOC3)n2)ccc1O[C@H]1CCC[C@H](C(=O)O)C1` (some centres unmarked) [Example 83] it is 172 nM. To `Cc1nc(-c2nnn(C)c2CNc2nccc(Oc3ccc(Cl)nc3)n2)ccc1O[C@H]1CCC[C@H](C(=O)O)C1` [Example 84] belongs 383 nM. On to `Cc1nc(-c2nnn(C)c2CNc2nccc(OC3CCCC3)n2)ccc1O[C@H]1CCC[C@H](C(=O)O)C1` [Example 85], for which the IC50 came to 109 nM. To `Cc1nc(-c2nnn(C)c2CNc2nccc(Oc3cccnc3)n2)ccc1O[C@H]1CCC[C@H](C(=O)O)C1` [Example 86] belongs 91 nM. The figure for `COCCCCOc1ccnc(NCc2c(-c3ccc(O[C@H]4CCC[C@H](C(=O)O)C4)c(C)n3)nnn2C)n1` [Example 87] is 77 nM; for `CCSc1ccnc(NCc2c(-c3ccc(O[C@H]4CCC[C@H](C(=O)O)C4)c(C)n3)nnn2C)n1` [Example 88] it is 16 nM. As for `COCCCOc1ccnc(NCc2c(-c3ccc(O[C@H]4CCC[C@H](C(=O)O)C4)c(C)n3)nnn2C)n1` [Example 89], the IC50 stood at 77 nM.

Turning to `Cc1nc(-c2nnn(C)c2CNc2nccc(OCC(F)(F)F)n2)ccc1O[C@H]1CCC[C@H](C(=O)O)C1` [Example 90], the IC50 stood at 54 nM. Regarding `Cc1nc(-c2nnn(C)c2CNc2nccc(OCC(F)(F)C(F)F)n2)ccc1O[C@H]1CCC[C@H](C(=O)O)C1` [Example 91], the IC50 was 32 nM.

As for `Cc1nc(-c2nnn(C)c2CNc2ccnc(OCC(C)C)n2)ccc1O[C@H]1CCC[C@H](C(=O)O)C1` [Example 92], the concentration for half-maximal inhibition (IC50) is 381 nM.

`Cc1nc(-c2nnn(C)c2CNc2nccc(OCC(C)C)n2)ccc1O[C@H]1CCC[C@H](C(=O)O)C1` [Example 93]: the IC50 was 23 nM. As to `Cc1nc(-c2nnn(C)c2CNc2nccc(Oc3cccc(C#N)c3)n2)ccc1O[C@H]1CCC[C@H](C(=O)O)C1` [Example 94], the half-inhibitory concentration (IC50) came out at 241 nM.

Regarding `Cc1nc(-c2nnn(C)c2CNc2nc(-c3cccs3)nc(-c3cccs3)n2)ccc1O[C@H]1CCC[C@H](C(=O)O)C1` [Example 95], the concentration for half-maximal inhibition (IC50) came out at 1280 nM. To `Cc1nc(-c2nnn(C)c2CNc2nccc(OC3CCC3)n2)ccc1O[C@H]1CCC[C@H](C(=O)O)C1` [Example 96] belongs 16 nM; to `CSc1ccnc(NCc2c(-c3ccc(O[C@H]4CCC[C@H](C(=O)O)C4)c(C)n3)nnn2C)n1` [Example 97], 187 nM.

With `Cc1nc(-c2nnn(C)c2CNc2ccnc(OC(C)C(F)(F)F)n2)ccc1O[C@H]1CCC[C@H](C(=O)O)C1` (some centres unmarked) [Example 98], the IC50 was 99 nM. The figure for `Cc1nc(-c2nnn(C)c2CNc2nccc(OC(C)C(F)(F)F)n2)ccc1O[C@H]1CCC[C@H](C(=O)O)C1` (some centres unmarked) [Example 99] is 244 nM.

Source of the values: patent US11267800B2, “Cyclohexyl acid triazole azines as LPA antagonists” (BRISTOL-MYERS SQUIBB COMPANY, priority 2017, dated 2022).
